Experimental data: patent US12043632B2, “6-heteroaryloxy benzimidazoles and azabenzimidazoles as JAK2 inhibitors” (Ajax Therapeutics, Inc., priority 2020, dated 2024)

What follows are molecules tested against T1, JAK2 (JH1domain-catalytic, Y1007F,Y1008F) kinase (Homo sapiens, UniProt O60674, Y1007F/Y1008F) (assay: JAK2 JH1 Domain Binding Assay). Details: qPCR readout.
T1 construct: JAK2 (JH1domain-catalytic, Y1007F,Y1008F) kinase was expressed as N-terminal fusion; made in house; host or cells: transiently transfected HEK293 cells
T1 sequence (O60674 849-1124 Y1007F/Y1008F limits assumed): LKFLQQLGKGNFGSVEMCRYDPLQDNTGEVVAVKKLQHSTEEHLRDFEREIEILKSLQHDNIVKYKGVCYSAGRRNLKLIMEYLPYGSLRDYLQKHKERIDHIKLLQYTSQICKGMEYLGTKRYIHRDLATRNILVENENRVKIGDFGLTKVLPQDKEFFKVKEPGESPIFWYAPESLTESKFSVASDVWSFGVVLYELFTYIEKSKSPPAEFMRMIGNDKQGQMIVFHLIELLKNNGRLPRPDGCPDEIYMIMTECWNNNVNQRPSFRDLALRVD

| Kd | Structure (SMILES) |
| --- | --- |
| 10 to 50 nM | CCn1c(C(C)(C)C)ncc(Nc2nc3ncc(Oc4cnn5cc(NC)ncc45)c(Cl)c3n2C)c1=O [Example I-345, 2-(tert-butyl)-5-((7-chloro-1-methyl-6-((6-(methylamino)pyrazolo[1,5-a]pyrazin-3-yl)oxy)-1H-imidazo[4,5-b]pyridin-2-yl)amino)-3-ethylpyrimidin-4(3H)-one] |
| 10 to 50 nM | CNc1nccn2ncc(Oc3cnc4nc(Nc5cc(O[C@H]6CCN(C)C6)cc(C(F)(F)F)c5)n(C)c4c3Cl)c12 [Example I-228, (S)-7-chloro-1-methyl-6-((4-(methylamino)pyrazolo[1,5-a]pyrazin-3-yl)oxy)-N-(3-((1-methylpyrrolidin-3-yl)oxy)-5-(trifluoromethyl)phenyl)-1H-imidazo[4,5-b]pyridin-2-amine] |
| < 10 nM | CN1CCC(Oc2cc(Nc3nc4ncc(Oc5cnn6ccncc56)c(Cl)c4n3C)cc(C(F)(F)F)c2)CC1 [Example I-206, 7-chloro-1-methyl-N-(3-((1-methylpiperidin-4-yl)oxy)-5-(trifluoromethyl)phenyl)-6-(pyrazolo[1,5-a]pyrazin-3-yloxy)-1H-imidazo[4,5-b]pyridin-2-amine] |
| 10 to 50 nM | CNc1cn2ncc(Oc3cnc4nc(Nc5cc(C(F)(F)F)cn([C@@H]6CCCOC6)c5=O)n(C)c4c3Cl)c2cn1 (single isomer, unassigned) [Example I-352-b] |
| 10 to 50 nM | CN(C)[C@@H]1CCN(Cc2cc(C(F)(F)F)cc(Nc3nc4ncc(Oc5cnn6ccncc56)c(Cl)c4n3C)c2F)C1 [Example I-283, (R)-7-chloro-N-(3-((3-(dimethylamino)pyrrolidin-1-yl)methyl)-2-fluoro-5-(trifluoromethyl)phenyl)-1-methyl-6-(pyrazolo[1,5-a]pyrazin-3-yloxy)-1H-imidazo[4,5-b]pyridin-2-amine] |
| < 10 nM | CNc1cn2ncc(Oc3cnc4nc(Nc5cc(C6CC6)cn(C)c5=O)n(C)c4c3Cl)c2cn1 [Example I-312, 3-((7-chloro-1-methyl-6-((6-(methylamino)pyrazolo[1,5-a]pyrazin-3-yl)oxy)-1H-imidazo[4,5-b]pyridin-2-yl)amino)-5-cyclopropyl-1-methylpyridin-2(1H)-one] |
| < 10 nM | CNc1cc(F)c2c(Oc3cnc4nc(Nc5cc(C(F)(F)F)cn(C)c5=O)n(C)c4c3Cl)cnn2c1 [Example I-354, 3-((7-chloro-6-((4-fluoro-6-(methylamino)pyrazolo[1,5-a]pyridin-3-yl)oxy)-1-methyl-1H-imidazo[4,5-b]pyridin-2-yl)amino)-1-methyl-5-(trifluoromethyl)pyridin-2(1H)-one] |
| 10 to 50 nM | CNc1nccn2ncc(Oc3cnc4nc(Nc5cc(C(F)(F)F)cn([C@@H]6CCCOC6)c5=O)n(C)c4c3Cl)c12 (single isomer, unassigned) [Example I-245-b] |
| < 10 nM | Cn1c(Nc2cc(C3CC3)cn(-c3cccnc3)c2=O)nc2ncc(Oc3cnn4ccncc34)c(Cl)c21 [Example I-108, 3-((7-chloro-1-methyl-6-(pyrazolo[1,5-a]pyrazin-3-yloxy)-1H-imidazo[4,5-b]pyridin-2-yl)amino)-5-cyclopropyl-2H-[1,3′-bipyridin]-2-one] |
| < 10 nM | Cn1cc(C2CC2)cc(Nc2nc3ncc(Oc4cnn5ccnc(O[C@H]6CC[C@@H]6O)c45)c(Cl)c3n2C)c1=O (single isomer, unassigned) [Example I-133-b] |
| < 10 nM | Cn1cc(C2CC2)cc(Nc2nc3ncc(Oc4cnc5[nH]ncc5c4)c(Cl)c3n2C)c1=O [Example I-92, 3-((6-((1H-pyrazolo[3,4-b]pyridin-5-yl)oxy)-7-chloro-1-methyl-1H-imidazo[4,5-b]pyridin-2-yl)amino)-5-cyclopropyl-1-methylpyridin-2(1H)-one] |
| < 10 nM | Cc1n[nH]c2ncc(Oc3cnc4nc(Nc5cc(C(C)(C)C)n([C@H]6CCOC6)n5)n(C)c4c3)cc12 [Example I-4, (S)—N-(5-(tert-butyl)-1-(tetrahydrofuran-3-yl)-1H-pyrazol-3-yl)-1-methyl-6-((3-methyl-1H-pyrazolo[3,4-b]pyridin-5-yl)oxy)-1H-imidazo[4,5-b]pyridin-2-amine] |
| 10 to 50 nM | CN1CC[C@@H](Oc2cc(Nc3nc4ncc(Oc5cnn6ccncc56)c(Cl)c4n3C)cc(C(F)(F)F)c2)C1 [Example I-209, (R)-7-chloro-1-methyl-N-(3-((1-methylpyrrolidin-3-yl)oxy)-5-(trifluoromethyl)phenyl)-6-(pyrazolo[1,5-a]pyrazin-3-yloxy)-1H-imidazo[4,5-b]pyridin-2-amine] |
| 10 to 50 nM | CNc1nccn2ncc(Oc3cnc4nc(Nc5cc(CN6CC(O)C6)cc(C(F)(F)F)c5)n(C)c4c3Cl)c12 [Example I-264, 1-(3-((7-chloro-1-methyl-6-((4-(methylamino)pyrazolo[1,5-a]pyrazin-3-yl)oxy)-1H-imidazo[4,5-b]pyridin-2-yl)amino)-5-(trifluoromethyl)benzyl)azetidin-3-ol] |
| < 10 nM | Cn1c(Nc2cc(C(C)(C)C)n([C@@H]3CCOC34CC4)n2)nc2ncc(Oc3cnn4ccncc34)c(Cl)c21 (single isomer, unassigned) [Example I-41-b] |
| 10 to 50 nM | Cc1cc2cc(Oc3cnc4nc(Nc5cc(C(F)(F)F)cn(C)c5=O)n(C)c4c3C#N)cnc2[nH]1 [Example I-290, 1-methyl-6-((2-methyl-1H-pyrrolo[2,3-b]pyridin-5-yl)oxy)-2-((1-methyl-2-oxo-5-(trifluoromethyl)-1,2-dihydropyridin-3-yl)amino)-1H-imidazo[4,5-b]pyridine-7-carbonitrile] |
| < 10 nM | CN1CCC[C@H]1COc1cc(Nc2nc3ncc(Oc4cnn5ccncc45)c(Cl)c3n2C)cc(C(F)(F)F)c1 [Example I-243, (S)-7-chloro-1-methyl-N-(3-((1-methylpyrrolidin-2-yl)methoxy)-5-(trifluoromethyl)phenyl)-6-(pyrazolo[1,5-a]pyrazin-3-yloxy)-1H-imidazo[4,5-b]pyridin-2-amine] |
| 10 to 50 nM | Cc1cc2cc(Oc3cnc4nc(Nc5cc(C(F)(F)F)cn(C)c5=O)n(C)c4c3Cl)cnc2[nH]1 [Example I-293, 3-((7-chloro-1-methyl-6-((2-methyl-1H-pyrrolo[2,3-b]pyridin-5-yl)oxy)-1H-imidazo[4,5-b]pyridin-2-yl)amino)-1-methyl-5-(trifluoromethyl)pyridin-2(1H)-one] |
| 10 to 50 nM | CN1CC[C@H](n2nc(Nc3nc4ncc(Oc5cnn6ccnc6c5)c(Cl)c4n3C)cc2C(C)(C)C)C1 [Example I-35, (S)—N-(5-(tert-butyl)-1-(1-methylpyrrolidin-3-yl)-1H-pyrazol-3-yl)-7-chloro-6-(imidazo[1,2-b]pyridazin-7-yloxy)-1-methyl-1H-imidazo[4,5-b]pyridin-2-amine] |
| < 10 nM | CNc1nccn2ncc(Oc3cnc4nc(Nc5cc(C(F)(F)F)cn(C)c5=O)n(C)c4c3Cl)c12 [Example I-128, 3-((7-chloro-1-methyl-6-((4-(methylamino)pyrazolo[1,5-a]pyrazin-3-yl)oxy)-1H-imidazo[4,5-b]pyridin-2-yl)amino)-1-methyl-5-(trifluoromethyl)pyridin-2(1H)-one] |
| < 10 nM | Cn1cc(C(F)(F)F)cc(Nc2nc3ncc(Oc4cnn5cc(OCCO)ncc45)c(Cl)c3n2C)c1=O [Example I-397, 3-((7-chloro-6-((6-(2-hydroxyethoxy)pyrazolo[1,5-a]pyrazin-3-yl)oxy)-1-methyl-1H-imidazo[4,5-b]pyridin-2-yl)amino)-1-methyl-5-(trifluoromethyl)pyridin-2(1H)-one] |
| 10 to 50 nM | CNc1nccn2ncc(Oc3cnc4nc(Nc5cc(CN6CC(F)C6)cc(C(F)(F)F)c5)n(C)c4c3Cl)c12 [Example I-246, 7-chloro-N-(3-((3-fluoroazetidin-1-yl)methyl)-5-(trifluoromethyl)phenyl)-1-methyl-6-((4-(methylamino)pyrazolo[1,5-a]pyrazin-3-yl)oxy)-1H-imidazo[4,5-b]pyridin-2-amine] |
| < 10 nM | COCCOc1ccc2c(Oc3cnc4nc(Nc5cc(C6CC6)cn(CCO)c5=O)n(C)c4c3Cl)cnn2c1 [Example I-155, 3-((7-chloro-6-((6-(2-methoxyethoxy)pyrazolo[1,5-a]pyridin-3-yl)oxy)-1-methyl-1H-imidazo[4,5-b]pyridin-2-yl)amino)-5-cyclopropyl-1-(2-hydroxyethyl)pyridin-2(1H)-one] |
| 10 to 50 nM | Cn1cc(C(F)(F)F)cc(Nc2nc3ncc(Oc4cnn5ccn(C)c(=O)c45)c(Cl)c3n2C)c1=O [Example I-323, 3-((7-chloro-1-methyl-2-((1-methyl-2-oxo-5-(trifluoromethyl)-1,2-dihydropyridin-3-yl)amino)-1H-imidazo[4,5-b]pyridin-6-yl)oxy)-5-methylpyrazolo[1,5-a]pyrazin-4(5H)-one] |
| < 10 nM | CN1CCN(Cc2ccc(Nc3nc4ncc(Oc5cnn6ccncc56)c(Cl)c4n3C)cc2C(F)(F)F)CC1 [Example I-120, 7-chloro-1-methyl-N-(4-((4-methylpiperazin-1-yl)methyl)-3-(trifluoromethyl)phenyl)-6-(pyrazolo[1,5-a]pyrazin-3-yloxy)-1H-imidazo[4,5-b]pyridin-2-amine] |
| 10 to 50 nM | COc1c(Oc2cnn3ccccc23)cnc2nc(Nc3cc(C4CC4)cn(CCO)c3=O)n(C)c12 [Example I-100, 5-cyclopropyl-1-(2-hydroxyethyl)-3-((7-methoxy-1-methyl-6-(pyrazolo[1,5-a]pyridin-3-yloxy)-1H-imidazo[4,5-b]pyridin-2-yl)amino)pyridin-2(1H)-one] |
| 10 to 50 nM | COc1c(Oc2cnc3cnc(C4CC4)n3c2)cnc2nc(Nc3cc(C(C)(C)C)n([C@H]4C[C@H](O)C4)n3)n(C)c12 [Example I-130, (1r,3r)-3-(5-(tert-butyl)-3-((6-((6-cyclopropylimidazo[1,5-a]pyrimidin-3-yl)oxy)-7-methoxy-1-methyl-1H-imidazo[4,5-b]pyridin-2-yl)amino)-1H-pyrazol-1-yl)cyclobutan-1-ol] |
| 10 to 50 nM | CN1CC[C@@H](n2nc(Nc3nc4ncc(Oc5cnn6cc(F)ccc56)c(Cl)c4n3C)cc2C(C)(C)C)C1 [Example I-170] |
| < 10 nM | Cn1c(Nc2cc(C3CC3)cn([C@H]3CC[C@H]3O)c2=O)nc2ncc(Oc3cnn4ccccc34)c(Cl)c21 (single isomer, unassigned) [Example I-114-b] |
